Experimental findings from EP3597653A1, “CYCLIC INHIBITORS OF HEPATITIS B VIRUS” (IRBM S.P.A., priority 2018, dated 2020) are described below.

The structures appear in SMILES notation.

In the first assay the test system is HBV. The experiment in a line: HBV inhibition assay in HepAD38 cells (extracellular HBV DNA by direct qPCR). The format is cell-based. The following applies: Hepatitis B virus, compound at 0.1 µM, 96 hours, relative to non-treated reference, read-out: Anti HBV Activity (conc µM). The gist of the method:
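HepAD38 cells (HepG2, tetracycline-off HBV) induced in tetracycline-free medium, treated 96 h at 37 °C with compound, 0.5% DMSO. Extracellular HBV DNA quantified by direct SYBR qPCR of lysed supernatant, as % of untreated; EC50 from 8-point 1:2 curves; cytotoxicity by CellTiter-Blue.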
On to `Cc1cc2c(cc1C(=O)Nc1cc(F)c(F)c(F)c1)S(=O)(=O)N([C@H]1CC[C@H](O)CC1)C(=O)N2` [Example E122, trans-2-(4-hydroxycyclohexyl)-6-methyl-3-oxo-N-(3,4,5-trifluorophenyl)-3,4-dihydro-2H-benzo[e][1,2,4]thiadiazine-7-carboxamide 1,1-dioxide], for which the inhibition at 0.1 µM was over 50%. On to `O=C(Nc1ccc(F)c(Cl)c1)c1ccc2c(c1)S(=O)(=O)N([C@H]1CC[C@H](O)CC1)C(=O)N2` [Example E123, N-(3-chloro-4-fluorophenyl)-2-((1r,4r)-4-hydroxycyclohexyl)-3-oxo-3,4-dihydro-2H-benzo[e][1,2,4]thiadiazine-7-carboxamide 1,1-dioxide], for which the inhibition at 0.1 µM is over 50%.

Still in this assay, the particulars now being: Hepatitis B virus, compound at 0.5 µM, 96 hours, relative to non-treated reference, read-out: Anti HBV Activity (conc µM).
For `O=C(Nc1cc(F)c(F)c(F)c1)c1cnc2c(c1)S(=O)(=O)N([C@H]1CC[C@H](O)CC1)C(=O)N2` [Example E121, trans-2-(4-hydroxycyclohexyl)-3-oxo-N-(3,4,5-trifluorophenyl)-3,4-dihydro-2H-pyrido[2,3-e][1,2,4]thiadiazine-7-carboxamide 1,1-dioxide], the inhibition at 0.5 µM was under 50%. On the same count and under the same terms, then `O=C(Nc1cc(F)c(F)c(F)c1)c1ccc2c(c1)S(=O)(=O)N([C@H]1C[C@@H](O)C1)C(=O)N2` [Example E124, Cis-2-(3-hydroxycyclobutyl)-3-oxo-N-(3,4,5-trifluorophenyl)-3,4-dihydro-2H-benzo[e][1,2,4]thiadiazine-7-carboxamide 1,1-dioxide], with over 50%.

On to `O=C(Nc1cc(F)c(F)c(F)c1)c1ccc2c(c1)S(=O)(=O)N([C@H]1C[C@H](O)C1)C(=O)N2` [Example E125, Trans-2(3-hydroxycyclobutyl)-3-oxo-N-(3,4,5-trifluorophenyl)-3,4-dihydro-2H-benzo[e][1,2,4]thiadiazine-7-carboxamide 1,1-dioxide], for which the inhibition at 0.5 µM is over 50%.

For `O=C(Nc1cc(F)c(F)c(F)c1)c1ccc2c(c1)S(=O)(=O)N([C@H]1C[C@@H](O)C1)CN2` [Example E126, Cis-2-(3-hydroxycyclobutyl)-N-(3,4,5-trifluorophenyl)-3,4-dihydro-2H-benzo[e][1,2,4]thiadiazine-7-carboxamide 1,1-dioxide], the inhibition at 0.5 µM is under 50%. On the same count and under the same terms, then `O=C(Nc1cc(F)c(F)c(F)c1)c1ccc2c(c1)S(=O)(=O)N([C@H]1C[C@H](O)C1)CN2` [Example E127, Trans-2-(3-hydroxycyclobutyl)-N-(3,4,5-trifluorophenyl)-3,4-dihydro-2H-benzo[e][1,2,4]thiadiazine-7-carboxamide 1,1-dioxide], with under 50%; and `O=C(Nc1cc(F)c(F)c(F)c1)c1ccc2c(c1)S(=O)(=O)N(c1cccnc1)C(=O)N2` [Example E128, 3-oxo-2-(pyridin-3-yl)-N-(3,4,5-trifluorophenyl)-3,4-dihydro-2H-benzo[e][1,2,4]thiadiazine-7-carboxamide 1,1-dioxide], with under 50%; and `O=C(Nc1ccc(F)c(C(F)F)c1)c1ccc2c(c1)S(=O)(=O)N([C@H]1CC[C@H](O)CC1)C(=O)N2` [Example E131, N-(3-(difluoromethyl)-4-fluorophenyl)-2-((1r,4r)-4-hydroxycyclohexyl)-3-oxo-3,4-dihydro-2H-benzo[e][1,2,4]thiadiazine-7-carboxamide 1,1-dioxide], with over 50%. Consider `Cc1cc(NC(=O)c2ccc3c(c2)S(=O)(=O)N([C@H]2CC[C@H](O)CC2)C(=O)N3)ccc1F` [Example E132, N-(4-fluoro-3-methylphenyl)-2-((1r,4r)-4-hydroxycyclohexyl)-3-oxo-3,4-dihydro-2H-benzo[e][1,2,4]thiadiazine-7-carboxamide 1,1-dioxide], for which the inhibition at 0.5 µM was over 50%. Regarding `O=C(Nc1cc(F)c(F)c(F)c1)c1ccc2c(c1)S(=O)(=O)N(C1CC=C(CO)CC1)C(=O)N2` (stereo not shown) [Example E134, 2-(4-(hydroxymethyl)cyclohex-3-en-1-yl)-3-oxo-N-(3,4,5-trifluorophenyl)-3,4-dihydro-2H-benzo[e][1,2,4]thiadiazine-7-carboxamide 1,1-dioxide], the inhibition at 0.5 µM is over 50%.

Staying with this assay, now noted: Hepatitis B virus, compound at 1 µM, 96 hours, relative to non-treated reference, read-out: Anti HBV Activity (conc µM).
For the compound `CC1(C)Nc2ccc(C(=O)Nc3ccc(F)c(F)c3)cc2S(=O)(=O)N1` [Example E120, N-(3,4-difluorophenyl)-3,3-dimethyl-3,4-dihydro-2H-benzo[e][1,2,4]thiadiazine-7-carboxamide 1,1-dioxide], the inhibition at 1 µM is over 50%. Same read-out and setting: the value for `O=C(Nc1cc(F)c(F)c(F)c1)c1ccc2c(c1)S(=O)(=O)NC(CO)CO2` (stereo not shown) [Example E135, 3-(hydroxymethyl)-N-(3,4,5-trifluorophenyl)-3,4-dihydro-2H-benzo[b][1,4,5]oxathiazepine-8-carboxamide 1,1-dioxide] was under 50%; that for `O=C(Nc1cc(F)c(F)c(F)c1)c1ccc2c(c1)S(=O)(=O)N[C@@H]1CCC[C@@H]1N2` [Example E136, (3aR,10aS)-N-(3,4,5-trifluorophenyl)-2,3,3a,4,10,10a-hexahydro-1H-benzo[f]cyclopenta[c][1,2,5]thiadiazepine-7-carboxamide 5,5-dioxide] was under 50%; that for `O=C(Nc1cc(F)c(F)c(F)c1)c1ccc2c(c1)S(=O)(=O)N[C@H]1CCC[C@H]1N2` [Example E137, (3aS,10aR)-N-(3,4,5-trifluorophenyl)-2,3,3a,4,10,10a-hexahydro-1H-benzo[f]cyclopenta[c][1,2,5]thiadiazepine-7-carboxamide 5,5-dioxide] was under 50%. Turning to `O=C(Nc1cc(F)c(F)c(F)c1)c1ccc2c(c1)S(=O)(=O)Nc1ncnn1-2` [Example E138, N-(3,4,5-trifluorophenyl)-4H-benzo[e][1,2,4]triazolo[5,1-c][1,2,4]thiadiazine-7-carboxamide 5,5-dioxide], the inhibition at 1 µM was under 50%. The same measure, in the same setting: the value for `O=C(Nc1cc(F)c(F)c(F)c1)c1ccc2c(c1)S(=O)(=O)NCC(CO)O2` (stereo not shown) [Example E139, 4-(hydroxymethyl)-N-(3,4,5-trifluorophenyl)-3,4-dihydro-2H-benzo[b][1,4,5]oxathiazepine-8-carboxamide 1,1-dioxide] was under 50%; that for `O=C(Nc1cc(F)c(F)c(F)c1)c1ccc2c(c1)S(=O)(=O)NC1(COC1)CO2` [Example E140, N-(3,4,5-trifluorophenyl)-2H,4H-spiro[benzo[b][1,4,5]oxathiazepine-3,3'-oxetane]-8-carboxamide 1,1-dioxide] was under 50%.

The assay is the same for the next values; noted with them: compound at 1 µM, 96 hours, relative to non-treated reference.
`CN1CCC(N2C(=O)Nc3ccc(C(=O)Nc4cc(F)c(F)c(F)c4)cc3S2(=O)=O)CC1` [Example E133, 2-(1-methylpiperidin-4-yl)-3-oxo-N-(3,4,5-trifluorophenyl)-3,4-dihydro-2H-benzo[e][1,2,4]thiadiazine-7-carboxamide 1,1-dioxide]: the “Anti HBV Activity (conc µM)” value is listed as “A (1) (HBV inhibition greater than 50% at the concentration indicated in the table)”.
